Our source for the Ki values is patent EP1935887A1, “Heterocyclic substituted carbonyl derivatives and their use as dopamine D3 receptor ligands” (Aventis Pharmaceuticals Inc., priority 2001, dated 2002).

T1 sequence (P35462 whole entry): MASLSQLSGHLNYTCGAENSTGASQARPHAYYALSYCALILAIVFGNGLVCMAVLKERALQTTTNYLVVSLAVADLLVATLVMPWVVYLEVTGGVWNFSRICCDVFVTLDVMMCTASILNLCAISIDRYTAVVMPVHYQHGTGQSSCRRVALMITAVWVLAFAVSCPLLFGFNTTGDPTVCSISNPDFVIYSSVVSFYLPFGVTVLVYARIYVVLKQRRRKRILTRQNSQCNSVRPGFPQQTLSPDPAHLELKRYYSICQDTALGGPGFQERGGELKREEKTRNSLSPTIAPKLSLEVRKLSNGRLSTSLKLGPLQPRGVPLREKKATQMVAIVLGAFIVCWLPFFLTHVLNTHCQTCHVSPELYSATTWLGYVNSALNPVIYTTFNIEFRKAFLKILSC

One experiment concerns the target T1, Cloned Human Dopamine D3 Receptors (Homo sapiens, UniProt P35462).
T1 construct: expressed in transfected cells; membrane homogenate
The experiment is described as follows: [N-Methyl-3H]Spiroperidol binding to cloned human dopamine D3 receptors. The conditions noted are these: Table 2; unit inferred; read-out: d3Ki. Summed up: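 [N-methyl-3H]spiroperidol binding is run in Tris buffer, pH 7.7. Receptor source is membranes of a stably transfected, high-expressing CHO clone carrying the human D3 gene, kept at -80°C in 10% DMSO.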
As for `CN(C(=O)CCCN1CCN(c2csc3cc(F)ccc23)CC1CCCc1ccccc1)C1CCCCC1` (centres unmarked) [compound 827109], the Ki turned out to be 0.0786 µM.

As for `CCN(C(=O)CCCN1CCN(c2csc3cc(F)ccc23)CC1CCCc1ccccc1)C1CCCCC1` (centres unmarked) [compound 827110], the Ki stood at 0.208 µM.

As for `O=C(CCCN1CCN(c2csc3cc(F)ccc23)CC1CCCc1ccccc1)N(CCO)C1CCCCC1` (centres unmarked) [compound 827111], the Ki was determined as 0.143 µM.

For the compound `CC1CCC(NC(=O)C2CC2CN2CCN(c3ccc(F)cc3)CC2)CC1` (centres unmarked) [compound 827196], the Ki was 0.00235 µM.

For the compound `C[C@H]1CC[C@H](NC(=O)[C@@H]2C[C@H]2CN2CCN(CCc3ccccc3)CC2)CC1` [compound 827198], the Ki is 0.161 µM.

With `C[C@H]1CC[C@H](NC(=O)[C@@H]2C[C@H]2CN2CCN(Cc3ccc4c(c3)OCO4)CC2)CC1` [compound 827201], the Ki worked out at 0.126 µM.

Consider `C[C@H]1CC[C@H](NC(=O)[C@@H]2C[C@H]2CN2CCN(c3cccc4cccnc34)CC2)CC1` [compound 827253], for which the Ki is 0.0158 µM.

Regarding `Cc1ccc(N2CCCN(C[C@@H]3C[C@H]3C(=O)N[C@H]3CC[C@H](C)CC3)CC2)nc1` [compound 827731], the Ki was found to be 0.0195 µM.

Consider `CC[C@H]1CC[C@H](NC(=O)[C@@H]2C[C@H]2CN2CCCN(c3ccc(C)cn3)CC2)CC1` [compound 827732], for which the Ki is 0.0105 µM.

With `CC[C@H]1CC[C@H](NC(=O)[C@@H]2C[C@H]2CN2CCCN(c3ncccc3Cl)CC2)CC1` [compound 827733], the Ki came to 0.00119 µM.

On to `CCC1CCC(NC(=O)C2CC2CN2CCCN(c3ccccn3)CC2)CC1` (centres unmarked) [compound 827800], for which the Ki came to 0.0197 µM.

The same experiment, now with this note: Table 2 part the 10th table; read-out: d3Ki.
`CCOC(=O)C1CCN(C(=O)CCCN2CCN(c3csc4cc(F)ccc34)CC2CCCc2ccccc2)CC1` (centres unmarked) [compound 827112]: the Ki turned out to be 0.126 µM.

On to `O=C(CCCN1CCN(c2csc3cc(F)ccc23)CC1CCCc1ccccc1)N1CCC(O)CC1` (centres unmarked) [compound 827113], for which the Ki was 0.095 µM.

As for `CC1CCCCN1C(=O)CCCN1CCN(c2csc3cc(F)ccc23)CC1CCCc1ccccc1` (centres unmarked) [compound 827114], the Ki was determined as 0.12 µM.

The experiment is the same for the next values; noted with them: read-out: D3 Ki.
With `CC(C)(C)OC(=O)N1CCN(C[C@@H]2C[C@H]2C(=O)N[C@H]2CC[C@H](C)CC2)CC1` [compound 827184], the Ki is 0.237 µM.

Turning to `CC[C@H]1CC[C@H](NC(=O)[C@@H]2C[C@H]2CN2CCN(c3cnccn3)CC2)CC1` [compound 827226], the Ki turned out to be 0.0161 µM.

Turning to `CC[C@H]1CC[C@H](NC(=O)[C@@H]2C[C@H]2CN2CCN(c3cccc(C(F)(F)F)c3)CC2)CC1` [compound 827229], the Ki worked out at 0.00171 µM.

Consider `O=C([C@@H]1C[C@H]1CN1CCC(c2noc3ccsc23)CC1)N1CCOCC1` [compound 829461], for which the Ki was 0.306 µM.

Regarding `CN(CCc1ccccn1)C(=O)C1CC1CN1CCC(c2noc3ccsc23)CC1` (centres unmarked) [compound 829593], the Ki turned out to be 0.35 µM.

`CCC1CCC(NC(=O)C2CC2CN2CCCN(c3ccc4c(C#N)n[nH]c4n3)CC2)CC1` (centres unmarked) [compound 830122]: the Ki amounted to 0.0676 µM.

Still in this experiment, the particulars now being: read-out: d3Ki.
As to `C[C@H]1CC[C@H](NC(=O)[C@@H]2C[C@H]2CN2CCN(c3cccc(Cl)c3)CC2)CC1` [compound 827173], the Ki came to 0.00278 µM.

Regarding `Cc1ccc(N2CCN(C[C@@H]3C[C@H]3C(=O)N[C@H]3CC[C@H](C)CC3)CC2)cc1` [compound 827174], the Ki worked out at 0.0087 µM.

As for `C[C@H]1CC[C@H](NC(=O)[C@@H]2C[C@H]2CN2CCN(c3ccccn3)CC2)CC1` [compound 827175], the Ki came to 0.004 µM.

For the compound `CCOc1ccccc1N1CCN(C[C@@H]2C[C@H]2C(=O)N[C@H]2CC[C@H](C)CC2)CC1` [compound 827176], the Ki came to 0.00118 µM.

In the case of `C[C@H]1CC[C@H](NC(=O)[C@@H]2C[C@H]2CN2CCN(c3ccccc3Cl)CC2)CC1` [compound 827177], the Ki was 0.001 µM.

In the case of `C[C@H]1CC[C@H](NC(=O)[C@@H]2C[C@H]2CN2CCN(c3ccc(Cl)cc3)CC2)CC1` [compound 827178], the Ki is 0.0124 µM.

In the case of `COc1ccccc1N1CCN(C[C@@H]2C[C@H]2C(=O)N[C@H]2CC[C@H](C)CC2)CC1` [compound 827179], the Ki was 0.00104 µM.

Turning to `Cc1cccc(N2CCN(C[C@@H]3C[C@H]3C(=O)N[C@H]3CC[C@H](C)CC3)CC2)c1` [compound 827180], the Ki was determined as 0.00247 µM.

Consider `C[C@H]1CC[C@H](NC(=O)[C@@H]2C[C@H]2CN2CCN(c3ccc(C(F)(F)F)cc3Cl)CC2)CC1` [compound 827181], for which the Ki was found to be 0.0972 µM.

With `C[C@H]1CC[C@H](NC(=O)[C@@H]2C[C@H]2CN2CCN(c3ccc(C(F)(F)F)cn3)CC2)CC1` [compound 827182], the Ki worked out at 0.073 µM.

Take `C[C@H]1CC[C@H](NC(=O)[C@@H]2C[C@H]2CN2CCN(c3ncccc3C(F)(F)F)CC2)CC1` [compound 827183]: the Ki came out at 0.00329 µM.

For `C[C@H]1CC[C@H](NC(=O)[C@@H]2C[C@H]2CN2CCN(c3ccc(Cl)c(Cl)c3)CC2)CC1` [compound 827185], the Ki worked out at 0.00489 µM.

Take `Cc1ccc(C)c(N2CCN(C[C@@H]3C[C@H]3C(=O)N[C@H]3CC[C@H](C)CC3)CC2)c1` [compound 827186]: the Ki came to 0.00821 µM.

Regarding `C[C@H]1CC[C@H](NC(=O)[C@@H]2C[C@H]2CN2CCN(c3cnccn3)CC2)CC1` [compound 827187], the Ki stood at 0.0106 µM.

Turning to `C[C@H]1CC[C@H](NC(=O)[C@@H]2C[C@H]2CN2CCN(c3ccco3)CC2)CC1` [compound 827189], the Ki was found to be 0.126 µM.

Consider `C[C@H]1CC[C@H](NC(=O)[C@@H]2C[C@H]2CN2CCN(c3cccc(C(F)(F)F)c3)CC2)CC1` [compound 827190], for which the Ki came to 0.00242 µM.

On to `C[C@H]1CC[C@H](NC(=O)[C@@H]2C[C@H]2CN2CCN(c3ccccc3)CC2)CC1` [compound 827191], for which the Ki is 0.000724 µM.

For the compound `Cc1ccc(N2CCN(C[C@@H]3C[C@H]3C(=O)N[C@H]3CC[C@H](C)CC3)CC2)c(C)c1` [compound 827193], the Ki worked out at 0.0406 µM.

As for `COc1ccc(N2CCN(C[C@@H]3C[C@H]3C(=O)N[C@H]3CC[C@H](C)CC3)CC2)cc1` [compound 827194], the Ki stood at 0.0244 µM.

Consider `COc1cccc(N2CCN(C[C@@H]3C[C@H]3C(=O)N[C@H]3CC[C@H](C)CC3)CC2)c1` [compound 827195], for which the Ki was determined as 0.00818 µM.

Consider `CC1CCC(NC(=O)C2CC2CN2CCN(c3ncccn3)CC2)CC1` (centres unmarked) [compound 827197], for which the Ki is 0.0276 µM.

For `C[C@H]1CC[C@H](NC(=O)[C@@H]2C[C@H]2CN2CCN(c3ccc(Cl)c(C(F)(F)F)c3)CC2)CC1` [compound 827199], the Ki is 0.00434 µM.

For `Cc1cccc(C)c1N1CCN(C[C@@H]2C[C@H]2C(=O)N[C@H]2CC[C@H](C)CC2)CC1` [compound 827200], the Ki is 0.119 µM.

Take `C[C@H]1CC[C@H](NC(=O)[C@@H]2C[C@H]2CN2CCN(c3ccc([N+](=O)[O-])cc3)CC2)CC1` [compound 827205]: the Ki was found to be 0.2 µM.

Regarding `CC(=O)c1ccc(N2CCN(C[C@@H]3C[C@H]3C(=O)N[C@H]3CC[C@H](C)CC3)CC2)cc1` [compound 827206], the Ki came to 0.0597 µM.

Regarding `CC[C@H]1CC[C@H](NC(=O)[C@@H]2C[C@H]2CN2CCN(c3cccc(Cl)c3)CC2)CC1` [compound 827212], the Ki is 0.0012 µM.

`CC[C@H]1CC[C@H](NC(=O)[C@@H]2C[C@H]2CN2CCN(c3ccc(C)cc3)CC2)CC1` [compound 827213]: the Ki turned out to be 0.0111 µM.

Regarding `CC[C@H]1CC[C@H](NC(=O)[C@@H]2C[C@H]2CN2CCN(c3ccccn3)CC2)CC1` [compound 827214], the Ki was 0.00613 µM.

Turning to `CCOc1ccccc1N1CCN(C[C@@H]2C[C@H]2C(=O)N[C@H]2CC[C@H](CC)CC2)CC1` [compound 827215], the Ki came out at 0.000229 µM.

In the case of `CC[C@H]1CC[C@H](NC(=O)[C@@H]2C[C@H]2CN2CCN(c3ccccc3Cl)CC2)CC1` [compound 827216], the Ki turned out to be 0.00216 µM.

With `CC[C@H]1CC[C@H](NC(=O)[C@@H]2C[C@H]2CN2CCN(c3ccccc3OC)CC2)CC1` [compound 827218], the Ki amounted to 0.00122 µM.

Consider `CC[C@H]1CC[C@H](NC(=O)[C@@H]2C[C@H]2CN2CCN(c3cccc(C)c3)CC2)CC1` [compound 827219], for which the Ki amounted to 0.00263 µM.

For the compound `CC[C@H]1CC[C@H](NC(=O)[C@@H]2C[C@H]2CN2CCN(c3ccc(C(F)(F)F)cn3)CC2)CC1` [compound 827221], the Ki was found to be 0.0992 µM.

As for `CC[C@H]1CC[C@H](NC(=O)[C@@H]2C[C@H]2CN2CCN(c3cnccn3)CC2)CC1` [compound 827226], the Ki was determined as 0.0161 µM.

For the compound `CC[C@H]1CC[C@H](NC(=O)[C@@H]2C[C@H]2CN2CCN(C(=O)c3ccco3)CC2)CC1` [compound 827228], the Ki is 0.062 µM.

Take `CC[C@H]1CC[C@H](NC(=O)[C@@H]2C[C@H]2CN2CCN(c3cccc(C(F)(F)F)c3)CC2)CC1` [compound 827229]: the Ki turned out to be 0.00171 µM.

In the case of `CC[C@H]1CC[C@H](NC(=O)[C@@H]2C[C@H]2CN2CCN(c3ccccc3)CC2)CC1` [compound 827230], the Ki worked out at 0.00209 µM.

For `CC[C@H]1CC[C@H](NC(=O)[C@@H]2C[C@H]2CN2CCN(c3ccc(OC)cc3)CC2)CC1` [compound 827233], the Ki came to 0.0277 µM.

Consider `CC[C@H]1CC[C@H](NC(=O)[C@@H]2C[C@H]2CN2CCN(c3cccc(OC)c3)CC2)CC1` [compound 827234], for which the Ki is 0.00315 µM.

With `CC[C@H]1CC[C@H](NC(=O)[C@@H]2C[C@H]2CN2CCN(c3ccc(F)cc3)CC2)CC1` [compound 827235], the Ki is 0.00449 µM.

For `CC[C@H]1CC[C@H](NC(=O)[C@@H]2C[C@H]2CN2CCN(c3ncccn3)CC2)CC1` [compound 827236], the Ki came out at 0.0129 µM.

As to `CC[C@H]1CC[C@H](NC(=O)[C@@H]2C[C@H]2CN2CCN(c3ccc(Cl)c(C(F)(F)F)c3)CC2)CC1` [compound 827238], the Ki was 0.00248 µM.

For the compound `CC[C@H]1CC[C@H](NC(=O)[C@@H]2C[C@H]2CN2CCN(c3ccc([N+](=O)[O-])cc3)CC2)CC1` [compound 827244], the Ki was 0.197 µM.

Consider `CC[C@H]1CC[C@H](NC(=O)[C@@H]2C[C@H]2CN2CCN(c3ccc(C(C)=O)cc3)CC2)CC1` [compound 827245], for which the Ki came out at 0.043 µM.

On to `CC[C@H]1CC[C@H](NC(=O)[C@@H]2C[C@H]2CN2CCN(c3ccc(Cl)c(Cl)c3)CC2)CC1` [compound 828393], for which the Ki amounted to 0.00345 µM.
